From patent US20030190357A1, “Compositions for delivery of a cortisol antagonist” (priority 2000, published 2003) come the findings set out here.

The data set can be described thus: solubility of ketoconazole in oleic acid. It counts as physicochemical. Particulars: ambient room temperature, 48 h. Here is the method: The solubility of ketoconazole in oleic acid was assessed at ambient room temperature using the method described in Example 1. Samples containing 5, 10, 15 and 33 wt. % of ketoconazole were mixed with oleic acid and the appearance of undissolved ketoconazole was investigated after 24 and 48 h. After 24 hours samples containing 5 wt. % ketoconazole were completely dissolved and after 48 h samples containing 10 wt. % of ketoconazole were completely homogenous and all ketoconazole was dissolved. Thus the solubility of ketoconazole in oleic acid is estimated to be about 10 wt. %.

In the case of `CC(=O)N1CCN(c2ccc(OCC3COC(Cn4ccnc4)(c4ccc(Cl)cc4Cl)O3)cc2)CC1` (stereo not shown) [ketoconazole, Ketoconazole], the “solubility of ketoconazole in oleic acid” value is “about 10 wt. %”.
